Activity calls are given as the source filed them.
Columns and labels:
[1] = target: T1, Heat shock 70 kDa protein 1A (Homo sapiens, UniProt P0DMV8); experiment: small molecules displacing fluorescent ligand from Hsp70 – biochemical, fluorescence polarization, primary screen (AID 583)
[2] = target: T1, Heat shock 70 kDa protein 1A; experiment: small-molecule inhibition of Hsp70 – biochemical, TR-FRET (AID 786)
[3] = viability loss in THP-1 monocytes – THP-1 cells, cytotoxicity control for Vif-APOBEC3G degradation inhibitor project, dose response (AID 1117359); type: functional; details: THP-1
[4] = target: Neurotensin receptor type 1 (Homo sapiens, UniProt P30989); type: functional;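 note: Image-based confirmatory dose-response assay measuring agonist activity at NTR1; NTR1-expressing U2OS osteosarcoma cells imaged for beta-arrestin GFP spot formation; agonist potency where compounds increase beta-arrestin recruitment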
Sequence of Neurotensin receptor type 1 (P30989 whole entry): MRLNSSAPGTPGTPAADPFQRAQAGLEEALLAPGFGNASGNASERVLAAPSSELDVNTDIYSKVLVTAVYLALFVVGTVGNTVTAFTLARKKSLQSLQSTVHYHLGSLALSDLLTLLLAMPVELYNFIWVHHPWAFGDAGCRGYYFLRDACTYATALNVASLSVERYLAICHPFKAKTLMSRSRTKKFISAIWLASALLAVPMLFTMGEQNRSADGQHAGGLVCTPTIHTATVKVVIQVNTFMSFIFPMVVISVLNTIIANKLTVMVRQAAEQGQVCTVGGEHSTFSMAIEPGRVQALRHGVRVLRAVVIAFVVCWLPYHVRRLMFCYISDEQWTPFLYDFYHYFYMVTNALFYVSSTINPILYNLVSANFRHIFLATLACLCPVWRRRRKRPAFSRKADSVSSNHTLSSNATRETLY

[5] = target: Large T antigen (Simian virus 40, UniProt P03070); type: functional, Betapolyomavirus macacae;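 note: Confirmatory-stage PubChem screen for compounds that inhibit SV40 T antigen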
Sequence of Large T antigen (P03070 whole entry): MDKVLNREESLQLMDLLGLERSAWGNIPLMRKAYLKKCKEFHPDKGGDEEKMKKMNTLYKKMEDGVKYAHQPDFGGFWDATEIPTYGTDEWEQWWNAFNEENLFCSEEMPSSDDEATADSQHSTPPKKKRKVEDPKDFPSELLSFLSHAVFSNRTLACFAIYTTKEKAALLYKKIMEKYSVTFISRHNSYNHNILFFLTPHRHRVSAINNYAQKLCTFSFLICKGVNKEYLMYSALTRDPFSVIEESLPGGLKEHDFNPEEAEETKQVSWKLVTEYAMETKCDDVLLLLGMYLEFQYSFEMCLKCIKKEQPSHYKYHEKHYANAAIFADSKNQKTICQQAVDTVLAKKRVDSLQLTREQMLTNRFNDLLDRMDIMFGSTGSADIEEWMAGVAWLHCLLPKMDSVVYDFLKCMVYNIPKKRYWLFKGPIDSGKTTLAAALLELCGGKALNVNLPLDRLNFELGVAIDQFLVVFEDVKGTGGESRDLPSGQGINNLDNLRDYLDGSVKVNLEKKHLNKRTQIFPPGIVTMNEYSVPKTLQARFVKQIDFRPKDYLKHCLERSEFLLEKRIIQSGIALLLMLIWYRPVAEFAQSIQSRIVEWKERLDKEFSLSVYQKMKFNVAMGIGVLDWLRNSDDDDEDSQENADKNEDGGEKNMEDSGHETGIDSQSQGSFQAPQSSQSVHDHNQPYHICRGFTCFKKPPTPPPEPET

[6] = target: Albumin (Bos taurus, UniProt P02769); experiment: Counterscreen for inhibitors of T-cell receptor (TCR)-CD3 interaction: Fluorescence-based biochemical high throughput dose response assay to identify inhibitors of T-cell receptor (TCR)-CD3 interaction using a TAMRA-labeled BSA probe.; type: functional
Sequence of Albumin (P02769 whole entry): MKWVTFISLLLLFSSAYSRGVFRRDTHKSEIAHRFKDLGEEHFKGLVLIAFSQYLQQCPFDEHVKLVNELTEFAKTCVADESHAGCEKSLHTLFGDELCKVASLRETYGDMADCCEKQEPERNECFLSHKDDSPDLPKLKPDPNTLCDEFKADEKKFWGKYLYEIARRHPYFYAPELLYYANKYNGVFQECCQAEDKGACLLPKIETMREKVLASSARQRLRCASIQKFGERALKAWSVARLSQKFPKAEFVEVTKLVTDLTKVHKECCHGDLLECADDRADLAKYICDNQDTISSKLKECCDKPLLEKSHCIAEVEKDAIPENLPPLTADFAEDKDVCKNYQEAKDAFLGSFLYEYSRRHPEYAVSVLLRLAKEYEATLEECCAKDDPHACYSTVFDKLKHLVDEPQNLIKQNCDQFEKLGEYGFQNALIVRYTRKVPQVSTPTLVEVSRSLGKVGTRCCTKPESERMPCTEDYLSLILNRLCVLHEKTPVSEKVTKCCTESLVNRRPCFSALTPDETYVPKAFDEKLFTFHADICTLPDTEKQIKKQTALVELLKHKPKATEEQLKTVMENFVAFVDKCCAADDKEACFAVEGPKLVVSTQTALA

[7] = target: T2, SUMO-activating enzyme (Homo sapiens, UniProt Q9UBT2); experiment: blockers of SAE1/SAE2–UBC9 SUMO transfer – biochemical, HTRF, uHTS, primary screen (AID 2006); type: protein-complex assay
T2 sequence (Q9UBE0 whole entry): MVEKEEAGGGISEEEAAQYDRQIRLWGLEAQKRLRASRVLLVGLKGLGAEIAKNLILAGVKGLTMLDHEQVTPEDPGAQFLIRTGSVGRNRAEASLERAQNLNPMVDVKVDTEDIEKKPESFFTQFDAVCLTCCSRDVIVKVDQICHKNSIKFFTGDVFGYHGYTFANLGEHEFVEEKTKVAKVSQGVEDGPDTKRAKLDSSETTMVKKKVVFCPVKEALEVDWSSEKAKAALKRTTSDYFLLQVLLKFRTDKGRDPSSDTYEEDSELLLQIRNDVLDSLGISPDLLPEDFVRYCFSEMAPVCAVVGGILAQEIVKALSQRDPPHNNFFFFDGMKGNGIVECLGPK
T2 sequence (Q9UBT2 whole entry): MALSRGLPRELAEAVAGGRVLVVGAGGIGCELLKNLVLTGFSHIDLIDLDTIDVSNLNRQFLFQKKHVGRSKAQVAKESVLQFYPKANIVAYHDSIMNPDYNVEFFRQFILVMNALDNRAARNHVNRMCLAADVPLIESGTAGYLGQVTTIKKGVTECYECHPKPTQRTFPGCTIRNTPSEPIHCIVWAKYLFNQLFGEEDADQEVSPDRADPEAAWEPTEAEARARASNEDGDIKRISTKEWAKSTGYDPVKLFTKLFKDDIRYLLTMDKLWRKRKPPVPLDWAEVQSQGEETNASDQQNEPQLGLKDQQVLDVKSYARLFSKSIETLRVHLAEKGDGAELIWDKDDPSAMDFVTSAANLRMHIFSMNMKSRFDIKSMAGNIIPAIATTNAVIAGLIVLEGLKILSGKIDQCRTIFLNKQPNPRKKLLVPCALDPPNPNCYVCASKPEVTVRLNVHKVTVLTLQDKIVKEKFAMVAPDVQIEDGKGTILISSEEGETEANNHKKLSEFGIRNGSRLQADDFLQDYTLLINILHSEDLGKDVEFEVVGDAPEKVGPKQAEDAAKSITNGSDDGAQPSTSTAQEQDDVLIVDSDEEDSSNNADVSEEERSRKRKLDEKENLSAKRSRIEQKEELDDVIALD

[8] = target: Prothrombin (Bos taurus, UniProt P00735); experiment: thrombin protease inhibitors – biochemical, fluorescence polarization, uHTS hits, dose response (AID 602369); type: functional
[9] = target: 26S proteasome non-ATPase regulatory subunit 14 (Homo sapiens, UniProt O00487); experiment: inhibition of proteasome subunit RPN11 – biochemical, fluorescence polarization, uHTS hits, confirmation (AID 602368); type: functional
[10] = target: T2, SUMO-activating enzyme; experiment: blockers of UBC9-mediated SUMO conjugation – biochemical, AlphaScreen, SUMOylation inhibitor project, confirmation (AID 2018); type: functional
[11] = target: 72 kDa type IV collagenase (Homo sapiens, UniProt P08253); experiment: Dose Response validation of uHTS RPN11 inhibitor hits using a MMP-2 Fluorescence assay.; type: functional
Sequence of 72 kDa type IV collagenase (P08253 whole entry): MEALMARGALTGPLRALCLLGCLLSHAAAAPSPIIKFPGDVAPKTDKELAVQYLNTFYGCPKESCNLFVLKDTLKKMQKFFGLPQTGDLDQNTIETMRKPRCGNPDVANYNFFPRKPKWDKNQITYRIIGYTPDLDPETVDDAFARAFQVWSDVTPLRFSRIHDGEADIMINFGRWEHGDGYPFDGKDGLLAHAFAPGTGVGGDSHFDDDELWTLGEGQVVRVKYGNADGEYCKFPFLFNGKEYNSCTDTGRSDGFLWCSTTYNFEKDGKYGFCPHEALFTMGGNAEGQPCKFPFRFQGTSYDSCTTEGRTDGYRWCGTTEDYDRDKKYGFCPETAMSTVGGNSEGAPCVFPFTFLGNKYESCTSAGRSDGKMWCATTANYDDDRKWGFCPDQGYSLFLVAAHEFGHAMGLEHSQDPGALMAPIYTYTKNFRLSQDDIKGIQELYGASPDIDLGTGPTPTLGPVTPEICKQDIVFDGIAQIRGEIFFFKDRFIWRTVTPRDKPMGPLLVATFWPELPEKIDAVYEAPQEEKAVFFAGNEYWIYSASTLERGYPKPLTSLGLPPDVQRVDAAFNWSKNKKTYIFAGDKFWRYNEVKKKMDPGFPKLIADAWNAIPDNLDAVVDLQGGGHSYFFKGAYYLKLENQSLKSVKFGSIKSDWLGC

[12] = target: Induced myeloid leukemia cell differentiation protein Mcl-1 (Homo sapiens, UniProt Q07820); type: functional
Sequence of Induced myeloid leukemia cell differentiation protein Mcl-1 (Q07820 whole entry): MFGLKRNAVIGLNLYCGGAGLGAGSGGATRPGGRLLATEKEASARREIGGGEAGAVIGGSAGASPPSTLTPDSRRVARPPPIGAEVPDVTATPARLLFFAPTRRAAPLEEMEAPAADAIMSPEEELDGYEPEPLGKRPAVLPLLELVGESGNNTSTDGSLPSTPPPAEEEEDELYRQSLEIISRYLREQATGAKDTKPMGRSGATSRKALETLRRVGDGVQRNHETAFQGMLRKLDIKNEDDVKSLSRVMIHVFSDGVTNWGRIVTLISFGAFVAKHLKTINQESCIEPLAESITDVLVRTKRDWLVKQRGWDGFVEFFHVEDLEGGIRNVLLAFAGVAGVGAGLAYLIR

[13] = target: NS3 (Hepatitis C virus, UniProt A3EZJ3); experiment: PubChem AID 2173; parameters: species or system Hepacivirus hominis
Sequence of NS3 (A3EZJ3 whole entry): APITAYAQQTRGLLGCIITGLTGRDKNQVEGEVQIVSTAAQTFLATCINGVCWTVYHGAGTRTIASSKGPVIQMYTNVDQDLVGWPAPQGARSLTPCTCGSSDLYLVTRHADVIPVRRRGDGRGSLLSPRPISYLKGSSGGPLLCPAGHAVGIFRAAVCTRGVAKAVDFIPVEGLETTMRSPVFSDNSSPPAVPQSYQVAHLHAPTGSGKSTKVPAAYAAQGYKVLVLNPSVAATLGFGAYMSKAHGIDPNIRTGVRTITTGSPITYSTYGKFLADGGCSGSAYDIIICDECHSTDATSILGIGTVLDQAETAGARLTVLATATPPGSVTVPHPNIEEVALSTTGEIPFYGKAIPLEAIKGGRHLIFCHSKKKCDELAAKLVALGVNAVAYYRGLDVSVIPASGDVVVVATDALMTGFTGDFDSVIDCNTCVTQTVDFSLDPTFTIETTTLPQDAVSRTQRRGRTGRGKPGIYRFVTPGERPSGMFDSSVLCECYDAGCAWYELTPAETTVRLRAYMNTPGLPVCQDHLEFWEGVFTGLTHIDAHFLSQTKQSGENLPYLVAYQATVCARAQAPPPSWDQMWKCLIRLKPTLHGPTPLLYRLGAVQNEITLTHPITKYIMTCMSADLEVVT

[14] = HEK-293T cell viability reduction – luminescence, B-cell screen hits, cytotoxicity control for BCR NF-kB inhibitor project, dose response (AID 489021); type: functional, cell-based;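 note: HEK-293T cells carrying an NF-kB luciferase reporter; cells exposed to compound for about 14 hours before viability readout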

T1 sequence (P0DMV8 whole entry): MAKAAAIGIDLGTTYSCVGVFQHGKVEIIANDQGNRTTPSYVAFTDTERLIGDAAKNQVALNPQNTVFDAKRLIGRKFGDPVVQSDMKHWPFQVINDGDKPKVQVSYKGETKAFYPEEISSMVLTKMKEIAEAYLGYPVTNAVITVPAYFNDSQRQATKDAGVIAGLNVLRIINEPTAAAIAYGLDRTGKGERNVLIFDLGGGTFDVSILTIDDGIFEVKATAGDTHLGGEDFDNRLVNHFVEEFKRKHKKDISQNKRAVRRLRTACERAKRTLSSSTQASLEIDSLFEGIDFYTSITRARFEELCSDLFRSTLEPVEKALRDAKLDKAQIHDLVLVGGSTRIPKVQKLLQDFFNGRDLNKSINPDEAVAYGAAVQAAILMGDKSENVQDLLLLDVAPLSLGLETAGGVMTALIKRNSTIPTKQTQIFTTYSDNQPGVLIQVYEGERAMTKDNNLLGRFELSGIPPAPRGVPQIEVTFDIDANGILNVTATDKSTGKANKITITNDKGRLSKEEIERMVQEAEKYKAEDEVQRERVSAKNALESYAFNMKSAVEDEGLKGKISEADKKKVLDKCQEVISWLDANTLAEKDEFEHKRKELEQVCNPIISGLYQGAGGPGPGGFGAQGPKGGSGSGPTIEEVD

SMILES: C=CCOC(=O)C(C#N)c1nc2ccccc2nc1N1CCCC1 (centres undefined)
- IC50 [1]: > 100 µM (not active)
- IC50 [2]: > 100 µM (not active)

SMILES: O=c1cc(-c2ccc(O)cc2)oc2cc(O)c(C3OC(CO)C(O)C(O)C3O)c(O)c12 (centres undefined)
- CC50 [3]: > 40 µM (active)
- EC50 [4]: 2.71 µM (active)
- IC50 [5]: 21.4 µM (active)
- IC50 [6]: > 94.1 µM (inactive)

SMILES: Cc1ccc(CSc2nnc(SCC(=O)N/N=C/c3c[nH]c4ccccc34)s2)cc1
- IC50 [7]: 17.6 µM (active)
- IC50 [8]: 55.4 µM (active)
- IC50 [9]: 6.88 µM (active)
- IC50 [10]: 1.38 µM (active)
- IC50 [11]: > 100 µM (inactive)
- IC50 [12]: 3.91 µM (active)

SMILES: COc1ccc2[nH]c3c(=O)n(CCCC(=O)NC4CCCCC4C)c(=S)[nH]c3c2c1 (centres undefined)
- IC50 [13]: 45.7 µM (not active)

SMILES: COc1cc(C[C@@H]2C(=O)OC[C@H]2Cc2ccc(OC)c(OC)c2)ccc1O
- IC50 [14]: > 80 µM (inactive)

— ChEMBL document CHEMBL1201862, “PubChem BioAssay data set” (2004)
